From US8252835B2, “Compounds and methods for treating estrogen receptor-related diseases” (Shenogen Pharma Group Ltd., priority 2006, dated 2012)

How the values were obtained:
MCF7 cells [1] = test: MCF7 colony formation; format: cell-based; conditions: 10 days, FIG. 5a
MDA-MB-231 cells = test: MDA-MB-231 colony formation, crystal violet staining; format: cell-based; conditions: 10 days, FIG. 4
[2] = system: human endometrial cancer Hec1A cells; test: MTT assay of Hec1A cell growth; format: cell-based; conditions: 24 hours
Protocol: Human endometrial cancer Hec1A cells (ATCC No.: HTB-112™) were subseeded in a 96-well culture plate at a concentration of 5×10^3 cells/well and were cultured in DMEM containing high glucose medium (HyClone, SH30022.01B). […] The cells then were incubated with 0.5 mg/ml 3-(4,5-dimethylthiazol-2-yl)-2,5-diphenyltetrazolium bromide (MTT) for 4 hours at 37° C. wherein the MTT was reduced to insoluble purple formazan by the active mitochondrial reductase enzymes in the living cells. Then the excessive liquid MTT was removed from the reaction mixture. 150 μl of DMSO was added to dissolve the purple formazan into a colored solution. The optical density of the colored solution was measured at 490 nm using a microplate reader.

MCF7 cells [3] = test: MCF7 surviving cell count (hemocytometer); conditions: for numbers of surviving MCF7 cells: 5 μM and up, two weeks, FIG. 5b
ER-α36 = target: T1, ER-α36 (Homo sapiens, UniProt P03372); test: Western blot of ER-α36 expression in MCF7 cells; conditions: zero to 25 μM, 12 hours, FIG. 9
T1 sequence (P03372 1-310 isoform P03372-4): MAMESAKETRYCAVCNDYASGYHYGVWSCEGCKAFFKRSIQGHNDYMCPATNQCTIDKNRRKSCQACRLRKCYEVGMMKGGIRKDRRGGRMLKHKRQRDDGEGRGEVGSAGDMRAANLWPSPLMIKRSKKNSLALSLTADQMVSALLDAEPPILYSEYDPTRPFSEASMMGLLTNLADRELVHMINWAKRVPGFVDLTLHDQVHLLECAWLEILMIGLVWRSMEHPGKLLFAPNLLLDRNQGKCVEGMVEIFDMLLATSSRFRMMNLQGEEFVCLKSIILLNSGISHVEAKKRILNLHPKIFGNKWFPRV

ER-α46 = target: T2, ER-α46 (Homo sapiens, UniProt P03372); test: Western blot of ER-α46 expression in MCF7 cells; conditions: zero to 25 μM, 12 hours, FIG. 9
T2 sequence (P03372 1-422 isoform P03372-3): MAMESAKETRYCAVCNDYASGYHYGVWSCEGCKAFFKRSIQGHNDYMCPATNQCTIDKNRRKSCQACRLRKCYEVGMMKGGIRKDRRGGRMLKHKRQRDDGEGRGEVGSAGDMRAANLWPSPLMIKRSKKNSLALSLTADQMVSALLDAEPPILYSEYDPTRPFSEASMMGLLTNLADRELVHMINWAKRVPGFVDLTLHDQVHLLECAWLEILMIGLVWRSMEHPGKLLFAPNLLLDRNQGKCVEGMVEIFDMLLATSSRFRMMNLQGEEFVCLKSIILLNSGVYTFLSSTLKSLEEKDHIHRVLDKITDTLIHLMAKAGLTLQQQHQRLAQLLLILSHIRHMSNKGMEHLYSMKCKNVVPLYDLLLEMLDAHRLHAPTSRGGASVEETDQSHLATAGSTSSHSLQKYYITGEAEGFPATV

ER-α66 = target: T3, ER-α66 (Homo sapiens, UniProt P03372); test: Western blot of ER-α66 expression in MCF7 cells; conditions: zero to 25 μM, 12 hours, FIG. 9
T3 sequence (P03372 1-595): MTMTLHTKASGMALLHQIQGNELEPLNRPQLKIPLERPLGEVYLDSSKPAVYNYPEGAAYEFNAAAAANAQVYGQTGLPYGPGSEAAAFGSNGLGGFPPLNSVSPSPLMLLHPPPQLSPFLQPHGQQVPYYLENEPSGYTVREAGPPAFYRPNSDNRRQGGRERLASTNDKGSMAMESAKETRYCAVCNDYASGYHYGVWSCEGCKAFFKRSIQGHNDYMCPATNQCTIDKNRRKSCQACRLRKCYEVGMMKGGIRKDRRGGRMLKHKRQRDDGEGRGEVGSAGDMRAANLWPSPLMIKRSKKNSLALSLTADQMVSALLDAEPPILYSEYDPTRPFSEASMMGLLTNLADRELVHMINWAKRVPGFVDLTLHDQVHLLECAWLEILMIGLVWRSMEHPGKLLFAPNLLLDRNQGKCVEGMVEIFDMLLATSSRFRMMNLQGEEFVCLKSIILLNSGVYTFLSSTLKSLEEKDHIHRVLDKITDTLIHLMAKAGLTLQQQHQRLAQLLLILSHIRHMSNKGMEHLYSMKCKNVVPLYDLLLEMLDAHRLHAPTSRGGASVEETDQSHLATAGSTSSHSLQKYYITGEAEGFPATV

breast cancer cells = conditions: background, literature (Liu 2005; Wang 2004; Ye 2005); cited from earlier work
H226 Lung Cancer Cells = test: H226 lung cancer surviving cell count; format: cell-based; conditions: 10 μM, FIG. 16
[4] = system: Tamoxifen resistant MCF7 cells (MCF7/TAM); test: Surviving cell count, Tamoxifen resistant MCF7 cells; conditions: 10 μM, FIG. 16
[5] = Asthma attack induced by ovalbumin in guinea pigs; format: in vivo; conditions: for blood concentration of histamine / concentration of IgE in the blood: ELISA; for blood concentration of histamine: FIG. 19; for concentration of IgE in the blood: FIG. 20; for percentage of oxyphil cells in the blood: control about 9.9%, normal about 5.3%
Protocol: Guinea pigs of 250-300 g were provided by Beijing Haidian Xingwang Animal Farm. The guinea pigs were injected with 1 ml 10% ovalbumin (Sigma Cat. No. A5253) into abdomen once. On the 15th-17th day after the injection, the guinea pigs were given 1% aerosolized ovalbumin for about 20 seconds through nasal spray to induce asthma attack. The latent period before asthma attack calculated from after ovalbumin administration to the time when the guinea pigs collapsed with convulsion was measured.
On the 17th day after injection, the qualified guinea pigs were divided into 3 groups, the high dosage IC-163 group (4 mg/kg/day), the low dosage IC-163 group (1 mg/kg/day) and the control group. Each group consisted of 10 guinea pigs. A normal group consisting of 8 normal guinea pigs which had not been injected with any 10% ovalbumin was also tested. IC-163 was administered to the guinea pigs at 4 mg per kilogram of body weight per day (the high dosage group) or 1 mg per kilogram of body weight per day (the low dosage group) through muscle injection once a day for 6 days while the guinea pigs of the normal group and the control group were injected with saline water. On the 4th and 6th day of administering the drug, the guinea pigs were induced for asthma attack in the same way as above. The latent period before asthma attack was measured. If the latent period lasted longer than 5 minutes, the latent period was recorded as 5 minutes. On the 6th day, blood was drawn from the guinea pigs of the four groups to examine the percentage of oxyphil cells, the concentrations of histamine and IgE in the blood. The percentage of oxyphil cells was measured by counting the number of oxyphil cells in every 200 leukocytes under microscope. The concentrations of histamine and IgE were measured by double-antibody sandwich ELISA (Enzyme Linked Immunosorbent Assay).

PC3 cells = test: PC3 prostate cancer surviving cell count; format: cell-based; conditions: 10 μM, FIG. 16
cell proliferation = conditions: background, literature; cited from earlier work
[6] = zero to 25 μM, as concentration rose
[7] = high dosage 4 mg/kg/day, 6th day
[8] = low dosage 1 mg/kg/day, 6th day

## CC/C(=C(\c1ccccc1)c1ccc(OCCN(C)C)cc1)c1ccccc1 [Tamoxifen]
MCF7 cells [1]; [6]
  number of colonies of MCF7 cells: significantly reduced
MDA-MB-231 cells; 5 μM
  numbers of colonies of MDA-MB-231 cells: decreased
MDA-MB-231 cells; 10 μM
  numbers of colonies of MDA-MB-231 cells: reduced to near zero
[2]; concentrations below 3 μM
  effect on the growth of Hec1A cells: stimulating the growth
[2]; concentrations increased from 0.001 μM to 3 μM, FIG. 21
  optical density at 490 nm (MTT): rose

## O=c1cc(-c2ccc(O)c(O)c2)oc2cc(O)cc(O)c12 [Luteolin]
MCF7 cells [1]; [6]
  number of colonies of MCF7 cells: significantly reduced
MDA-MB-231 cells; 5 μM
  numbers of colonies of MDA-MB-231 cells: decreased
MDA-MB-231 cells; 40 μM
  numbers of colonies of MDA-MB-231 cells: dropped to near zero

## CC1(C)CCc2c(cc(O)c3c(=O)c(O)c(-c4ccc(O)cc4)oc23)O1 [Y4, 3,5-dihydroxy-2-(4-hydroxyphenyl)-8,8-dimethyl-9,10-dihydro-4H,8H-pyrano[2,3-f]chromen-4-one]
MCF7 cells [3]
  numbers of surviving MCF7 cells: significantly reduced
ER-α36
  ER-α36 expression: greatly reduced
ER-α46
  ER-α46 expression: greatly reduced
ER-α66
  ER-α66 expression: greatly reduced

## C[C@]12CC[C@@H]3c4ccc(O)cc4C[C@@H](CCCCCCCCC[S+]([O-])CCCC(F)(F)C(F)(F)F)[C@H]3[C@@H]1CC[C@@H]2O (some centres unmarked) [ICI 182,780]
MCF7 cells [1]; 25 μM
  number of colonies of MCF7 cells: only a limited decrease
MDA-MB-231 cells; 5 μM
  numbers of colonies of MDA-MB-231 cells: decreased
MDA-MB-231 cells; 50 μM
  numbers of colonies of MDA-MB-231 cells: remained at a high level

## CC(C)=CCc1c(O)cc(O)c2c(=O)c(O)c(-c3ccc(O)cc3)oc12 [desmethylicaritin, reference compound]
Breast cancer cells
  proliferation of breast cancer cells: significantly increase

## COc1ccc(-c2oc3c(CCC(C)(C)O)c(O)cc(O)c3c(=O)c2O)cc1 [IC 163, 3,5,7-trihydroxy-8-(3-hydroxy-3-methylbutyl)-2-(4-methoxyphenyl)-4H-chromen-4-one]
H226 Lung Cancer Cells
  numbers of cells: reduced
[4]
  numbers of cells: reduced
MCF7 cells [3]
  numbers of surviving MCF7 cells: significantly reduced
MCF7 cells [3]; 10 μM, FIG. 16
  numbers of cells: reduced
[5]; high dosage 4 mg/kg/day muscle injection, 4th day
  latent period before asthma attack extended in comparison with the control group: 72.9%
[5]; high dosage 4 mg/kg/day muscle injection, 6th day
  latent period before asthma attack extended in comparison with the control group: 63.5%
[5]; [7]
  blood concentration of histamine: significantly reduce
  concentration of IgE in the blood: significantly reduce
  percentage of oxyphil cells in the blood: about 8.6%
[5]; low dosage 1 mg/kg/day muscle injection, 4th day
  latent period before asthma attack extended in comparison with the control group: 83.4%
[5]; low dosage 1 mg/kg/day muscle injection, 6th day
  latent period before asthma attack extended in comparison with the control group: 72.7%
[5]; [8]
  blood concentration of histamine: significantly reduce
  concentration of IgE in the blood: significantly reduce
  percentage of oxyphil cells in the blood: about 7.8%
ER-α36
  ER-α36 expression: greatly reduced
ER-α46
  ER-α46 expression: greatly reduced
PC3 cells
  numbers of cells: reduced
ER-α66
  ER-α66 expression: greatly reduced

## COc1ccc(-c2oc3c(CC=C(C)C)c(O[C@@H]4O[C@H](CO)[C@@H](O)[C@H](O)[C@H]4O)cc(O)c3c(=O)c2O[C@@H]2O[C@@H](C)[C@H](O)[C@@H](O)[C@H]2O)cc1 [Icariin]
Cell proliferation
  effect on cell proliferation in vitro: no effect
